Tested on: Secretion of ApoB
Assay: Quantification of the secretion of ApoB in HepG2 cells
Assay type: cell-based
Conditions: Homo sapiens, HepG2, 24 h, 24 hours of incubation with test compound, immunoprecipitation of apoB from medium, read-out: pIC50 value (=-log IC50 value), secretion of ApoB (converted)
Outline: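 At 70% confluency, HepG2 cells in MEM with 10% FCS received compound or DMSO carrier (0.4% final) for 24 h. Secreted apoB in cleared medium immunoprecipitated with sheep anti-apoB then rabbit anti-sheep antibody (24 h each, 8° C); pellet radioactivity counted by liquid scintillation; IC50 expressed as pIC50.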

SMILES	IC50 [µM]
COC(=O)C(CCN1CCN(c2ccc(-n3cnn(C(C)C)c3=O)cc2)CC1)c1ccccc1 (stereo not shown) [Compound 169]	0.316 to 3.16
CC(C)n1ncn(-c2ccc(N3CCN(C(C(=O)NCC(F)(F)F)c4ccccc4)CC3)nc2)c1=O (stereo not shown) [Compound 170]	0.316 to 3.16
COC(=O)C(c1ccccc1)N1CCC(c2ccc(-n3cnn(C(C)C)c3=O)cc2)CC1 (stereo not shown) [Compound 171]	0.0316 to 0.316
COC(=O)C(c1ccccc1)N1CCN(c2ccc(-n3cnn(C(C)C)c3=O)cc2)CC1 (stereo not shown) [Compound 172]	0.316 to 3.16
COC(=O)C(c1ccccc1)(c1ccccc1)N1CCN(c2ccc(-n3cnn(C(C)C)c3=O)cc2)CC1 [Compound 173]	0.0316 to 0.316
CCC(C)n1ncn(-c2ccc(N3CCN(C(C(=O)OC)c4ccccc4)CC3)cc2)c1=O (stereo not shown) [Compound 174]	0.0316 to 0.316
CCNC(=O)C(c1ccccc1)N1CCN(c2ccc(-n3cnn(C(C)CC)c3=O)cc2)CC1 (stereo not shown) [Compound 175]	0.0316 to 0.316
CCCC(C(=O)Nc1ccc2c(c1)CCC2)N1CCN(c2ccc(-n3cnn(C(C)C)c3=O)cc2)CC1 (stereo not shown) [Compound 177]	0.0316 to 0.316
CCC(C)n1ncn(-c2ccc(N3CCN(C(C(=O)NCC(F)(F)F)c4ccccc4)CC3)cc2)c1=O (stereo not shown) [Compound 178]	0.0316 to 0.316
C=CCn1ncn(-c2ccc(N3CCC(C(C(=O)NCc4ccccc4)c4ccccc4)CC3)cc2)c1=O (stereo not shown) [Compound 180]	0.0316 to 0.316
CC(C)Cn1ncn(-c2ccc(N3CCC(C(C(=O)NCc4ccccc4)c4ccccc4)CC3)cc2)c1=O (stereo not shown) [Compound 181]	0.0316 to 0.316
O=C(NCc1ccccc1)C(c1ccccc1)C1CCN(c2ccc(-n3cnn(CC4CC4)c3=O)cc2)CC1 (stereo not shown) [Compound 182]	0.0316 to 0.316
O=C(NCc1ccccc1)C(c1ccccc1)C1CCN(c2ccc(-n3cnn(C/C=C/c4ccccc4)c3=O)cc2)CC1 (stereo not shown) [Compound 183]	0.0316 to 0.316
COc1ccc(NC(=O)C(c2ccccc2)N2CCN(c3ccc(-n4cnn(C(C)C)c4=O)cc3)CC2)c(OC)c1 (stereo not shown) [Compound 184]	0.0316 to 0.316
COc1ccccc1NC(=O)C(c1ccccc1)N1CCN(c2ccc(-n3cnn(C(C)C)c3=O)cc2)CC1 (stereo not shown) [Compound 185]	0.316 to 3.16
CC(C)n1ncn(-c2ccc(N3CCN(C(C(=O)Nc4ccc(F)cc4)c4ccccc4)CC3)cc2)c1=O (stereo not shown) [Compound 186]	0.0316 to 0.316
CCOC(=O)C(c1ccccc1)N1CCN(c2ccc(-n3ccn(C(C)C)c3=O)cc2)CC1 (stereo not shown) [Compound 189]	0.316 to 3.16
CC(C)n1cnn(-c2ccc(N3CCN(C(C(=O)Nc4ccc5c(c4)CCC5)c4ccccc4)CC3)cc2)c1=O (stereo not shown) [Compound 191]	0.0316 to 0.316
COC(=O)c1cccc(NC(=O)C(c2ccccc2)N2CCN(c3ccc(-n4cnn(C(C)C)c4=O)cc3)CC2)c1 (stereo not shown) [Compound 192]	0.0316 to 0.316
COC(=O)c1ccc(CNC(=O)C(c2ccccc2)N2CCN(c3ccc(-n4cnn(C(C)C)c4=O)cc3)CC2)cc1 (stereo not shown) [Compound 196]	0.316 to 3.16
CC(C)n1ncn(-c2ccc(N3CCN(C(C(=O)Nc4ccc5c(c4)-c4ccccc4C5)c4ccccc4)CC3)cc2)c1=O (stereo not shown) [Compound 197]	0.0316 to 0.316
CC(C)n1ncn(-c2ccc(N3CCN(C(C(=O)Nc4ccc5c(c4)nc(-c4ccccc4)n5C)c4ccccc4)CC3)cc2)c1=O (stereo not shown) [Compound 199]	0.316 to 3.16
CC(C)n1ncn(-c2ccc(N3CCN(C(C(=O)Nc4ccc5c(c4)OCO5)c4ccccc4)CC3)cc2)c1=O (stereo not shown) [Compound 200]	0.0316 to 0.316
CC(C)n1ncn(-c2ccc(N3CCN(C(C(=O)Nc4ccc5c(c4)NCC5)c4ccccc4)CC3)cc2)c1=O (stereo not shown) [Compound 201]	0.0316 to 0.316
CC(=O)N1CCc2ccc(NC(=O)C(c3ccccc3)N3CCN(c4ccc(-n5cnn(C(C)C)c5=O)cc4)CC3)cc21 (stereo not shown) [Compound 202]	0.0316 to 0.316
CC(C)N1CCN(c2ccc(N3CCN(C(C(=O)Nc4ccc5c(c4)CCC5)c4ccccc4)CC3)cc2)C1=O (stereo not shown) [Compound 203]	< 0.0316
COC(=O)C(c1ccccc1)N1CCN(c2ccc(-n3cnn(C(C)c4ccccc4)c3=O)cc2)CC1 (stereo not shown) [Compound 204]	0.0316 to 0.316
CC(C)n1ccn(-c2ccc(N3CCN(C(C(=O)Nc4ccc5c(c4)CCC5)c4ccccc4)CC3)cc2)c1=O (stereo not shown) [Compound 205]	< 0.0316

From US7504400B2, “MTP inhibiting aryl piperydines or piperazines substituted with 5-membered heterocycles” (Janssen Pharmaceutica N.V., priority 2004, dated 2009)
